Values of other authors in patent US11826492B2, “Intratumoral drug delivery materials and methods for treating breast cancer” (BIOTRONIK AG, priority 2016, dated 2023).
Like-named read-outs stand apart in the source and are kept apart here.

Conditions: Porcine Coronary Arteries

| Structure (SMILES) | Normalized Uptake (ng drug/mg tissue/μg drug on balloon) (3 days) | Normalized Uptake (ng drug/mg tissue/μg drug on balloon) (7 days) |
| --- | --- | --- |
| CO[C@H]1C[C@@H]2CC[C@@H](C)[C@@](O)(O2)C(=O)C(=O)N2CCCC[C@H]2C(=O)O[C@H]([C@H](C)C[C@@H]2CC[C@@H](OCCO)[C@H](OC)C2)CC(=O)[C@H](C)/C=C(\C)[C@@H](O)[C@@H](OC)C(=O)[C@H](C)C[C@H](C)/C=C/C=C/C=C/1C [US 2014/0046254 Everolimus, Everolimus] | 0.02 ng/mg/µg |  |
| CO[C@H]1C[C@@H]2CC[C@@H](C)[C@@](O)(O2)C(=O)C(=O)N2CCCC[C@H]2C(=O)O[C@H]([C@H](C)C[C@@H]2CC[C@H](n3cnnn3)[C@H](OC)C2)CC(=O)[C@H](C)/C=C(\C)[C@@H](O)[C@@H](OC)C(=O)[C@H](C)C[C@H](C)/C=C/C=C/C=C/1C [US 2014/0046254 Zotarolimus, Zotarolimus] |  | 0.04 ng/mg/µg |
